The assay relates to MV-4-11 cells. Nature of the assay: Cell Viability Assay in MV-4-11 Cells. The assay is classed as cell-based. The following applies: Homo sapiens, MV4-11, 72 h, MV-4-11 cells, 72 h, Cell-Titer Glo; read-out: IC50. Summed up: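 MV-4-11 cells at 7,000/well in IMDM with 10% FBS, exposed to compound for 72 h. Viability by CellTiter-Glo luminescence, normalized to DMSO as 100%, fitted with a four-parameter curve.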
`Cc1csc2ccnc(N(C(=O)c3ccc(-c4nnc(CCC#N)s4)cc3)[C@@H]3CCCNC3)c12` [Example 882, 4-[5-(2-cyanoethyl)-1,3,4-thiadiazol-2-yl]-N-(3-methylthieno[3,2-c]pyridin-4-yl)-N-[(3R)-3-piperidyl]benzamide]: the half-inhibitory concentration (IC50) was 180 nM.

With `Cc1csc2ccnc(N(C(=O)c3ccc(-c4nnc(CCC#N)s4)cc3F)[C@@H]3CCCNC3)c12` [Example 883, 4-[5-(2-cyanoethyl)-1,3,4-thiadiazol-2-yl]-2-fluoro-N-(3-methylthieno[3,2-c]pyridin-4-yl)-N-[(3R)-3-piperidyl]benzamide], the 50% inhibitory concentration (IC50) was determined as 160 nM.

As to `Cc1cc(Cl)cc2ccnc(N(C(=O)c3ccc(-c4cn(C)nn4)nc3)[C@@H]3CCCNC3)c12` [Example 884, N-(6-chloro-8-methyl-1-isoquinolyl)-6-(1-methyltriazol-4-yl)-N-[(3R)-3-piperidyl]pyridine-3-carboxamide], the IC50 was determined as 57 nM.

For `CCn1cc(-c2ccc(C(=O)N(c3nccc4scc(C)c34)[C@@H]3CCCNC3)cn2)nn1` [Example 885, 6-(1-ethyltriazol-4-yl)-N-(3-methylthieno[3,2-c]pyridin-4-yl)-N-[(3R)-3-piperidyl]pyridine-3-carboxamide], the IC50 is 110 nM.

With `C=Cc1csc2ccnc(N(C(=O)c3ccc(-c4nnc(C)s4)cc3F)[C@@H]3CCCNC3)c12` [Example 886, 2-fluoro-4-(5-methyl-1,3,4-thiadiazol-2-yl)-N-[(3R)-3-piperidyl]-N-(3-vinylthieno[3,2-c]pyridin-4-yl)benzamide], the IC50 is 180 nM.

With `C=C(C)c1ccnc(N(C(=O)c2ccc(-c3cn(C)nn3)cc2F)[C@@H]2CCCNC2)c1` [Example 887, 2-fluoro-N-(4-isopropenyl-2-pyridyl)-4-(1-methyltriazol-4-yl)-N-[(3R)-3-piperidyl]benzamide], the concentration for half-maximal inhibition (IC50) was over 6300 nM.

For `Cc1cccc2ccnc(N(C(=O)c3ccc(-c4cn(CCC#N)nn4)cc3F)[C@@H]3CCCNC3)c12` [Example 888, 4-[1-(2-cyanoethyl)triazol-4-yl]-2-fluoro-N-(8-methyl-1-isoquinolyl)-N-[(3R)-3-piperidyl]benzamide], the IC50 was found to be 26 nM.

With `[2H]C([2H])([2H])Oc1cc(C)c2c(N(C(=O)c3ccc(-c4cn(CC)nn4)cc3F)[C@@H]3CCCNC3)nccc2c1` [Example 889, 4-(1-ethyltriazol-4-yl)-2-fluoro-N-[8-methyl-6-(trideuteriomethoxy)-1-isoquinolyl]-N-[(3R)-3-piperidyl]benzamide], the IC50 turned out to be 41 nM.

For `[2H]C([2H])([2H])n1cc(-c2ccc(C(=O)N(c3nccc4cccc(C)c34)[C@@H]3CCCNC3)c(F)c2)nn1` [Example 890, 2-fluoro-N-(8-methyl-1-isoquinolyl)-N-[(3R)-3-piperidyl]-4-[1-(trideuteriomethyl)triazol-4-yl]benzamide], the IC50 stood at 60 nM.

In the case of `[2H]C([2H])([2H])n1cc(-c2ccc(C(=O)N(c3nccc4cc(F)cc(C)c34)[C@@H]3CCCNC3)c(F)c2)nn1` [Example 891, 2-fluoro-N-(6-fluoro-8-methyl-1-isoquinolyl)-N-[(3R)-3-piperidyl]-4-[1-(trideuteriomethyl)triazol-4-yl]benzamide], the IC50 was 44 nM.

On to `[2H]C([2H])([2H])n1cc(-c2ccc(C(=O)N(c3nccc4cc(Cl)cc(C)c34)[C@@H]3CCCNC3)cc2)nn1` [Example 892, N-(6-chloro-8-methyl-1-isoquinolyl)-N-[(3R)-3-piperidyl]-4-[1-(trideuteriomethyl)triazol-4-yl] benzamide], for which the half-inhibitory concentration (IC50) was 51 nM.

Take `[2H]C([2H])([2H])n1cc(-c2ccc(C(=O)N(c3nccc4cc(Cl)cc(C)c34)[C@@H]3CCCNC3)c(F)c2)nn1` [Example 893, N-(6-chloro-8-methyl-1-isoquinolyl)-2-fluoro-N-[(3R)-3-piperidyl]-4-[1-(trideuteriomethyl)triazol-4-yl]benzamide]: the half-maximal inhibitory concentration (IC50) came out at 40 nM.

With `[2H]C([2H])([2H])c1nnc(-c2ccc(C(=O)N(c3nccc4scc(C)c34)[C@@H]3CCCNC3)cc2)s1` [Example 894, N-(3-methylthieno[3,2-c]pyridin-4-yl)-N-[(3R)-3-piperidyl]-4-[5-(trideuteriomethyl)-1,3,4-thiadiazol-2-yl]benzamide], the IC50 came out at 130 nM.

As to `COCc1nnc(-c2ccc(C(=O)N(c3nccc4cc(Cl)cc(C)c34)[C@@H]3CCCNC3)cn2)s1` [Example 895, N-(6-chloro-8-methyl-1-isoquinolyl)-6-[5-(methoxymethyl)-1,3,4-thiadiazol-2-yl]-N-[(3R)-3-piperidyl]pyridine-3-carboxamide], the IC50 was determined as 53 nM.

With `COCc1nnc(-c2ccc(C(=O)N(c3nccc4cc(C)cc(C)c34)[C@@H]3CCCNC3)cn2)s1` [Example 896, N-(6,8-dimethyl-1-isoquinolyl)-6-[5-(methoxymethyl)-1,3,4-thiadiazol-2-yl]-N-[(3R)-3-piperidyl] pyridine-3-carboxamide], the 50% inhibitory concentration (IC50) is 46 nM.

`Cc1nnc(-c2ccc(C(=O)N(c3nccc4c(C)ccc(C)c34)[C@@H]3CCCNC3)cn2)s1` [Example 897, N-(5,8-dimethyl-1-isoquinolyl)-6-(5-methyl-1,3,4-thiadiazol-2-yl)-N-[(3R)-3-piperidyl] pyridine-3-carboxamide]: the IC50 is 140 nM.

For the compound `Cc1nnc(-c2ccc(C(=O)N(c3nccc4c(Cl)ccc(C)c34)[C@@H]3CCCNC3)cn2)s1` [Example 898, N-(5-chloro-8-methyl-1-isoquinolyl)-6-(5-methyl-1,3,4-thiadiazol-2-yl)-N-[(3R)-3-piperidyl] pyridine-3-carboxamide], the IC50 worked out at 120 nM.

Regarding `[2H]C([2H])([2H])c1nnc(-c2ccc(C(=O)N(c3nccc4cccc(C)c34)[C@@H]3CCCNC3)c(F)c2)s1` [Example 899, 2-fluoro-N-(8-methyl-1-isoquinolyl)-N-[(3R)-3-piperidyl]-4-[5-(trideuteriomethyl)-1,3,4-thiadiazol-2-yl]benzamide], the IC50 worked out at 150 nM.

In the case of `CCc1nnc(-c2ccc(C(=O)N(c3nccc4cccc(C)c34)[C@@H]3CCCNC3)cn2)s1` [Example 900, 6-(5-ethyl-1,3,4-thiadiazol-2-yl)-N-(8-methyl-1-isoquinolyl)-N-[(3R)-3-piperidyl] pyridine-3-carboxamide], the half-inhibitory concentration (IC50) was found to be 70 nM.

Turning to `COc1cc(C)c2c(N(C(=O)c3ccc(-c4nnc(C)s4)nc3)[C@@H]3CCCNC3)nccc2c1` [Example 901, N-(6-methoxy-8-methyl-1-isoquinolyl)-6-(5-methyl-1,3,4-thiadiazol-2-yl)-N-[(3R)-3-piperidyl]pyridine-3-carboxamide], the IC50 is 48 nM.

For `COc1ccc(C)c2c(N(C(=O)c3ccc(-c4nnc(C)s4)nc3)[C@@H]3CCCNC3)nccc12` [Example 902, N-(5-methoxy-8-methyl-1-isoquinolyl)-6-(5-methyl-1,3,4-thiadiazol-2-yl)-N-[(3R)-3-piperidyl] pyridine-3-carboxamide], the IC50 is 383 nM.

With `COCCc1nnc(-c2ccc(C(=O)N(c3nccc4cc(C)cc(C)c34)[C@@H]3CCCNC3)cn2)s1` [Example 903, N-(6,8-dimethyl-1-isoquinolyl)-6-[5-(2-methoxyethyl)-1,3,4-thiadiazol-2-yl]-N-[(3R)-3-piperidyl]pyridine-3-carboxamide], the IC50 came to 45 nM.

For the compound `COCCCc1nnc(-c2ccc(C(=O)N(c3nccc4cc(C)cc(C)c34)[C@@H]3CCCNC3)cn2)s1` [Example 904, N-(6,8-dimethyl-1-isoquinolyl)-6-[5-(3-methoxypropyl)-1,3,4-thiadiazol-2-yl]-N-[(3R)-3-piperidyl]pyridine-3-carboxamide], the IC50 came out at 75 nM.

Turning to `[2H]C([2H])([2H])c1nnc(-c2ccc(C(=O)N(c3nccc4cc(OC)cc(C)c34)[C@@H]3CCCNC3)cn2)s1` [Example 905, N-(6-methoxy-8-methyl-1-isoquinolyl)-N-[(3R)-3-piperidyl]-6-[5-(trideuteriomethyl)-1,3,4-thiadiazol-2-yl]pyridine-3-carboxamide], the IC50 worked out at 62 nM.

Regarding `[2H]C([2H])([2H])c1nnc(-c2ccc(C(=O)N(c3nccc4cc(C)cc(C)c34)[C@@H]3CCCNC3)c(F)c2)s1` [Example 906, N-(6,8-dimethyl-1-isoquinolyl)-2-fluoro-N-[(3R)-3-piperidyl]-4-[5-(trideuteriomethyl)-1,3,4-thiadiazol-2-yl]benzamide], the IC50 is 48 nM.

With `[2H]C([2H])([2H])c1nnc(-c2ccc(C(=O)N(c3nccc4cc(C)cc(C)c34)[C@@H]3CCCNC3)cc2)s1` [Example 907, N-(6,8-dimethyl-1-isoquinolyl)-N-[(3R)-3-piperidyl]-4-[5-(trideuteriomethyl)-1,3,4-thiadiazol-2-yl]benzamide], the IC50 turned out to be 130 nM.

In the case of `[2H]C([2H])([2H])c1nnc(-c2ccc(C(=O)N(c3nccc4cc(OC)cc(C)c34)[C@@H]3CCCNC3)cc2)s1` [Example 908, N-(6-methoxy-8-methyl-1-isoquinolyl)-N-[(3R)-3-piperidyl]-4-[5-(trideuteriomethyl)-1,3,4-thiadiazol-2-yl]benzamide], the IC50 came to 77 nM.

With `[2H]C([2H])([2H])Oc1cc(C)c2c(N(C(=O)c3ccc(-c4nnc(C)s4)nc3)[C@@H]3CCCNC3)nccc2c1` [Example 909], the concentration for half-maximal inhibition (IC50) worked out at 62 nM.

In the case of `COCCc1nnc(-c2ccc(C(=O)N(c3nccc4cccc(C)c34)[C@@H]3CCCNC3)cn2)s1` [Example 910, (R)-6-(5-(2-methoxyethyl)-1,3,4-thiadiazol-2-yl)-N-(8-methylisoquinolin-1-yl)-N-(piperidin-3-yl)nicotinamide], the IC50 came out at 97 nM.

Take `COc1cc(C)c2c(N(C(=O)c3ccc(-c4nnc(C)s4)nc3)[C@@H]3CCCNC3)nccc2c1F` [Example 911, N-(5-fluoro-6-methoxy-8-methyl-1-isoquinolyl)-6-(5-methyl-1,3,4-thiadiazol-2-yl)-N-[(3R)-3-piperidyl]pyridine-3-carboxamide]: the half-inhibitory concentration (IC50) is 140 nM.

(Values after US20240400555A1 (Initial Therapeutics, Inc., priority 2023, published 2024).)
